Measured values published in a compilation of properties of binary mixtures (doi:10.1016/j.molliq.2022.118621).

Experiment: xn = mol fraction of the nth substance listed
Details: 100 kPa

CC(O)C(=O)[O-].CCOCCn1cc[n+](C)c1 + O
Details	electrical conductivity [S/m]	viscosity [mPa·s]
288.15 K, x1 = 0.8091	0.243	86.2
288.15 K, x1 = 0.8366	0.214	93.5
288.15 K, x1 = 0.87	0.185	103
288.15 K, x1 = 0.9014	0.157	110.4
288.15 K, x1 = 0.9386	0.127	119.7
288.15 K, x1 = 1	0.082	132.7
293.15 K, x1 = 0.87	0.229	80.3
293.15 K, x1 = 0.9386	0.172	90.8
293.15 K, x1 = 1	0.123	99.1
298.15 K, x1 = 0.8091	0.336	52.9
298.15 K, x1 = 0.8366	0.306	56.21
298.15 K, x1 = 0.9014	0.248	63.93
298.15 K, x1 = 0.9386	0.218	68.22
298.15 K, x1 = 1	0.171	74.1
303.15 K, x1 = 0.8091	0.389	41.86
303.15 K, x1 = 0.8366	0.358	44.21
303.15 K, x1 = 0.87	0.33	47.25
303.15 K, x1 = 0.9014	0.302	49.83
303.15 K, x1 = 1	0.228	56.72
308.15 K, x1 = 0.9014	0.397	37.68
308.15 K, x1 = 0.9386	0.368	40.01
308.15 K, x1 = 1	0.314	43.14
313.15 K, x1 = 0.8091	0.572	25.13
313.15 K, x1 = 0.8366	0.544	26.5
313.15 K, x1 = 0.87	0.516	28.21
313.15 K, x1 = 0.9014	0.488	29.62
313.15 K, x1 = 0.9386	0.463	31.44
313.15 K, x1 = 1	0.418	33.82
318.15 K, x1 = 0.8091	0.713	18.65
318.15 K, x1 = 0.8366	0.681	19.82
318.15 K, x1 = 0.87	0.648	21.2
318.15 K, x1 = 0.9386	0.587	24.02
318.15 K, x1 = 1	0.536	26.08

CC(=O)[O-].CCOCCn1cc[n+](C)c1 + O
Details	electrical conductivity [S/m]	viscosity [mPa·s]
288.15 K, x1 = 0.8294	0.352	41.8
288.15 K, x1 = 0.852	0.313	42.73
288.15 K, x1 = 0.8822	0.271	43.97
288.15 K, x1 = 0.9125	0.232	45.18
288.15 K, x1 = 0.9447	0.195	46.51
288.15 K, x1 = 1	0.13	48.34
293.15 K, x1 = 0.8294	0.415	33.23
293.15 K, x1 = 0.852	0.377	33.91
293.15 K, x1 = 0.8822	0.329	34.81
293.15 K, x1 = 1	0.18	38.07
298.15 K, x1 = 0.8294	0.463	26.38
298.15 K, x1 = 0.852	0.427	26.91
298.15 K, x1 = 0.8822	0.384	27.59
298.15 K, x1 = 0.9125	0.347	28.28
298.15 K, x1 = 1	0.247	30.01
303.15 K, x1 = 0.8294	0.551	20.99
303.15 K, x1 = 0.852	0.513	21.43
303.15 K, x1 = 0.8822	0.471	22
303.15 K, x1 = 0.9125	0.431	22.55
303.15 K, x1 = 1	0.329	23.97
308.15 K, x1 = 0.8294	0.674	16.9
308.15 K, x1 = 0.852	0.633	17.25
308.15 K, x1 = 0.9125	0.544	18.18
308.15 K, x1 = 0.9447	0.506	18.66
308.15 K, x1 = 1	0.435	19.35
313.15 K, x1 = 0.8294	0.804	13.77
313.15 K, x1 = 0.9125	0.676	14.84
313.15 K, x1 = 0.9447	0.638	15.22
318.15 K, x1 = 0.8294	0.985	11.31
318.15 K, x1 = 0.852	0.941	11.54
318.15 K, x1 = 0.8822	0.887	11.83
318.15 K, x1 = 0.9125	0.843	12.15
318.15 K, x1 = 0.9447	0.797	12.45
318.15 K, x1 = 1	0.719	12.9
